Measured values published in patent US20220380375A1, “SUBSTITUTED AROMATIC FUSED RING DERIVATIVE AND COMPOSITION COMPRISING SAME, AND USE THEREOF” (Shenzhen TargetRx, Inc., priority 2019, published 2022).

Columns and labels:
Type in all cases: cell-based
[1] = test system: Ba/F3 FLT3-ITD^F691L cells; experiment: Cytotoxicity assay (CellTiter-Glo), Ba/F3 FLT3-ITD F691L; conditions: ratio of Ba/F3 parental IC50 to Ba/F3 FLT3-ITD^F691L IC50
Protocol: (§1) Inhibitory effects of example compounds on the activity of Ba/F3 parental generation, Ba/F3 KIF5B-RET, Ba/F3 KIF5B-RET^V804M, Ba/F3 KIF5B-RET^V804L, Ba/F3 KIF5B-RET^G810R, Ba/F3 FLT3-ITD, Ba/F3 FLT3-ITD^D835Y, Ba/F3 FLT3-ITD^F691L cells were determined.
(§2) Materials and reagents: fetal bovine serum FBS (GIBCO, Cat #10099141), CellTiter-Glo® Luminescent Cell Viability Assay kit (Promega, Cat #G7572), 96-well black-wall clear flat-bottom plate (Corning®, Cat #3603).
(§3) 1. Cells in the logarithmic growth phase were harvested and counted with a […]. Cell viability was detected by a trypan blue exclusion method, ensuring that cell viability was 90% or more; 2. Cell concentration was adjusted to about 3000 cells/well; 90 μl of cell suspension was added to each well of the 96-well plate; 3. The cells in the 96-well plate were incubated overnight under the condition of 37° C., 5% CO2, and 95% humidity.
(§4) 1. A series of compound solutions were formulated by 3.16-fold serial dilution starting from a concentration of 10 μM, resulting in 9 concentrations. 10 μL of the compound solutions were added in each well of the 96-well plate seeded with cells in triplicate for each compound concentration; 2. The cells in the 96-well plate added with compounds were further incubated under the condition of 37° C., 5% CO2, and 95% humidity for 72 hrs, and then CTG analysis was carried out.
(§5) 1. CTG reagent was thawed, and the cell plate was equilibrated at room temperature for 30 minutes; 2. An equal volume […] of CTG solution was added to each well; 3. The cell plate was shaken on an orbital shaker for 5 minutes to lyse the cells; 4. The cell plate was placed at RT for 20 minutes to stabilize the luminescence signal; 5. Luminescence value was read.
(§6) Data were Analyzed by GraphPad Prism 5.0 Software, and Fitted by Nonlinear S-Curve Regression to obtain a dose-response curve, from which IC50 values were calculated.
(§7) Cell survival rate (%)=(luminescence value of drug to be tested−luminescence value of culture medium control)/(luminescence value of cell control−luminescence value of culture medium control)×100%.

[2] = test system: Ba/F3 KIF5B-RET^V804M cells; experiment: Cytotoxicity assay (CellTiter-Glo), Ba/F3 KIF5B-RET V804M; conditions: ratio of Ba/F3 parental IC50 to Ba/F3 KIF5B-RET^V804M IC50
Protocol: as §1, §2, §3, §4, §5, §6, §7

[3] = molecular target: T1, Ba/F3 KIF5B-RET^V804M cells (Homo sapiens, UniProt P07949, V804M, cells depend on it); experiment: as above; conditions: CellTiter-Glo, 72 hrs; read-out: Ba/F3 KIF5B-RET^V804M IC50
T1 construct: Ba/F3 KIF5B-RET^V804M IC50 (nM); other: CellTiter-Glo, 72 hrs; fused on or other part: P33176 (Kinesin-1 heavy chain)
Protocol: as §1, §2, §3, §4, §5, §6, §7

[4] = molecular target: T2, Ba/F3 FLT3-ITD^D835Y cells (Homo sapiens, UniProt P36888, D835Y, cells depend on it, form not given); experiment: Cytotoxicity assay (CellTiter-Glo), Ba/F3 FLT3-ITD D835Y; conditions: CellTiter-Glo, 72 hrs; read-out: Ba/F3 FLT3-ITD^D835Y IC50
T2 construct: Ba/F3 FLT3-ITD^D835Y IC50 (nM); other: CellTiter-Glo, 72 hrs
T2 sequence (P36888 1-993 D835Y): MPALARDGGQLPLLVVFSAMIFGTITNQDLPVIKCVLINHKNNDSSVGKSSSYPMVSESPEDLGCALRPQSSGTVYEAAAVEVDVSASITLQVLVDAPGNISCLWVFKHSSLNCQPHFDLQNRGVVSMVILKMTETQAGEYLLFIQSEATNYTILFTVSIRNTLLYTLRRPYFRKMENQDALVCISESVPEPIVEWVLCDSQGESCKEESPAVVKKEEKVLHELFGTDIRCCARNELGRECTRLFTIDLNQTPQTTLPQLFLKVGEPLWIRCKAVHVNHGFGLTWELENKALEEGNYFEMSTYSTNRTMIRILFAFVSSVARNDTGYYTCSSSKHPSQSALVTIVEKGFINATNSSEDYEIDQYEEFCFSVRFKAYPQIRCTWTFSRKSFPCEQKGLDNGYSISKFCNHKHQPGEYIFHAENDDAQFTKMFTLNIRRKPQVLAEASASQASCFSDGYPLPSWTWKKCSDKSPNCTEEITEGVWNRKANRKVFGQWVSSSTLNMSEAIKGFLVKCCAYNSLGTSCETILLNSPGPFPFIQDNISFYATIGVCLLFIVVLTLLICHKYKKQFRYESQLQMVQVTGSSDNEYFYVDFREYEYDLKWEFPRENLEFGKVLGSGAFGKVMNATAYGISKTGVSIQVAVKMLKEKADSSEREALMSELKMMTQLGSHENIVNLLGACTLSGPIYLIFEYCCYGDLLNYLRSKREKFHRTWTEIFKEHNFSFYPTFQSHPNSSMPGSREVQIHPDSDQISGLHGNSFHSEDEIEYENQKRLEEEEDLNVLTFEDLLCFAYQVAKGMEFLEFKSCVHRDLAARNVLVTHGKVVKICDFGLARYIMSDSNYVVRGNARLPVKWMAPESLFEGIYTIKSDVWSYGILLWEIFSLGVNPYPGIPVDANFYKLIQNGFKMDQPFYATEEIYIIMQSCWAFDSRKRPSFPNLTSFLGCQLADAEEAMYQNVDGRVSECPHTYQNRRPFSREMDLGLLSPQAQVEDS
Protocol: as §1, §2, §3, §4, §5, §6, §7

[5] = molecular target: T3, Ba/F3 KIF5B-RET^G810R cells (Homo sapiens, UniProt P07949, G810R, cells depend on it); experiment: Cytotoxicity assay (CellTiter-Glo), Ba/F3 KIF5B-RET G810R; conditions: CellTiter-Glo, 72 hrs; read-out: Ba/F3 KIF5B-RET^G810R IC50
T3 construct: Ba/F3 KIF5B-RET^G810R IC50 (nM); other: CellTiter-Glo, 72 hrs; fused on or other part: P33176 (Kinesin-1 heavy chain)
Protocol: as §1, §2, §3, §4, §5, §6, §7

[6] = test system: Ba/F3 KIF5B-RET^G810R cells; experiment: as above; conditions: ratio of Ba/F3 parental IC50 to Ba/F3 KIF5B-RET^G810R IC50
Protocol: as §1, §2, §3, §4, §5, §6, §7

T3 sequence (P07949 whole entry G810R, the tested form may be a part): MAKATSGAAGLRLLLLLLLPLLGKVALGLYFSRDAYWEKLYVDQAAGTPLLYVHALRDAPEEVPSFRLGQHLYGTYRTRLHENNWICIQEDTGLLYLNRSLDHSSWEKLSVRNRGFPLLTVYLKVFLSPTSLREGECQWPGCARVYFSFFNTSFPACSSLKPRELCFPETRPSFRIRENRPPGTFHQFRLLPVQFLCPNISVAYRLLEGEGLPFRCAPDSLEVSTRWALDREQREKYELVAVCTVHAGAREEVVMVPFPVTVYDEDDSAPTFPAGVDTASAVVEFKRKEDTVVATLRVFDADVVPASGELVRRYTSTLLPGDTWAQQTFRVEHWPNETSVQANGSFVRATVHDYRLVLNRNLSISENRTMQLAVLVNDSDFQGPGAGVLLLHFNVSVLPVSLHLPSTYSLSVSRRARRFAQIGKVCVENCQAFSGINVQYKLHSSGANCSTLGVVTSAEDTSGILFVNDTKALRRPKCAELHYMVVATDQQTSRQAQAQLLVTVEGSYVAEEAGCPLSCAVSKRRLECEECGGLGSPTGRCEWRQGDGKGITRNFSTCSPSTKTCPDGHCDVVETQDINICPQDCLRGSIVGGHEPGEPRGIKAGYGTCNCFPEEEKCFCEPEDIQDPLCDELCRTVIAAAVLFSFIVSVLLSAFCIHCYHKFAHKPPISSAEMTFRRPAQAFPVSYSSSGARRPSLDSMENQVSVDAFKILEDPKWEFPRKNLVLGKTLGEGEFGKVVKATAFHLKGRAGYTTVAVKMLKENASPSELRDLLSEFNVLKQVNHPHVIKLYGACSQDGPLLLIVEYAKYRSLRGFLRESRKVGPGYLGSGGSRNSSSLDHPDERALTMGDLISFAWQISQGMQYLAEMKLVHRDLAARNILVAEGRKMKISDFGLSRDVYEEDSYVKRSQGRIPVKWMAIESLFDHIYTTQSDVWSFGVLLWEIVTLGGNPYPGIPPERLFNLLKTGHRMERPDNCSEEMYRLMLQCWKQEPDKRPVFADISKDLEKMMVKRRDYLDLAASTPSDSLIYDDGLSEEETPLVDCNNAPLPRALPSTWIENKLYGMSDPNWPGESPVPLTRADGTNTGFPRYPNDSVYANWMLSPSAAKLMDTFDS
T1 sequence (P07949 whole entry V804M, the tested form may be a part): as the sequence (P07949 whole entry G810R, the tested form may be a part) above, with V804M, R810G counted along it

Compound	Ba/F3 FLT3-ITD^F691L Selectivity on parental generation [1]	Ba/F3 KIF5B-RET^V804M Selectivity on parental generation [2]	GI50 [3] [nM]	GI50 [4] [nM]	GI50 [5] [nM]	Ba/F3 KIF5B-RET^G810R Selectivity on parental generation [6]
CC(C)n1nc(-c2ccc(NC(=O)Nc3cc(C(F)(F)F)ccc3F)cc2)c2c(N)ncnc21 [AD80, reference compound]	68.8	75.2	10.8	30.1	7.88	103.0
CC(C)n1nc(-c2ccc(CC(=O)Nc3cc(C(C)(C)C(F)(F)F)on3)cc2)c2c(N)ncnc21 [Compound T-1, 2-(4-(4-amino-1-isopropyl-1H-pyrazolo[3,4-d]pyrimidin-3-yl)phenyl)-N-(5-(1,1,1-trifluoro-2-methylprop-2-yl)isoxazol-3-yl)acetamide]	210.4	286.8	5.65	14.4	2.64	613.8
CC(C)n1nc(-c2ccc(NC(=O)Nc3cc(C(C)(C)C(F)(F)F)on3)cc2)c2c(N)ncnc21 [Compound T-2, 1-(4-(4-amino-1-isopropyl-1H-pyrazolo[3,4-d]pyrimidin-3-yl)phenyl)-3-(5-(1,1,1-trifluoro-2-methylprop-2-yl)isoxazol-3-yl)urea]	115.3	128.0	2.64	6.05	2.98	113.4
CC(C)n1cc(-c2ccc(CC(=O)Nc3cc(C(C)(C)C(F)(F)F)on3)cc2)c2c(N)ncnc21 [Compound T-3, 2-(4-(4-amino-7-isopropyl-7H-pyrrolo[2,3-d]pyrimidin-5-yl)phenyl)-N-(5-(1,1,1-trifluoro-2-methylprop-2-yl)isoxazol-3-yl)acetamide]	746.8	225.7	3.21	2.92	3.84	188.7
CC(C)c1nc(-c2ccc(CC(=O)Nc3cc(C(C)(C)C(F)(F)F)on3)cc2)c2c(N)nccn12 [Compound T-4, 2-(4-(8-amino-3-isopropylimidazo[1,5-a]pyrazin-1-yl)phenyl)-N-(5-(1,1,1-trifluoro-2-methylprop-2-yl)isoxazol-3-yl)acetamide]	42.2	73.6	9.53	23.1	25.5	27.5
CC(C)c1cc(-c2ccc(CC(=O)Nc3cc(C(C)(C)C(F)(F)F)on3)cc2)c2c(N)ncnn12 [Compound T-5, 2-(4-(4-amino-7-isopropylpyrrolo[2,1-f][1,2,4]triazin-5-yl)phenyl)-N-(5-(1,1,1-trifluoro-2-methylprop-2-yl)isoxazol-3-yl)acetamide]	419.6	370.8	12.9	35.8	13.6	351.7
CC(C)n1nc(-c2ccc(CC(=O)Nc3cc(C(C)(C)C(F)(F)F)on3)c(F)c2)c2c(N)ncnc21 [Compound T-6, 2-(4-(4-amino-1-isopropyl-1H-pyrazolo[3,4-d]pyrimidin-3-yl)-2-fluorophenyl)-N-(5-(1,1,1-trifluoro-2-methylprop-2-yl)isoxazol-3-yl)acetamide]	334.7	211.7	9.9	9.6	2.92	717.6
CC(C)n1nc(-c2ccc(CC(=O)Nc3cc(C(C)(C)C(F)(F)F)on3)cn2)c2c(N)ncnc21 [Compound T-7, 2-(6-(4-amino-1-isopropyl-1H-pyrazolo[3,4-d]pyrimidin-3-yl)pyridin-3-yl)-N-(5-(1,1,1-trifluoro-2-methylprop-2-yl)isoxazol-3-yl)acetamide]	101.9	95.9	3.42	5.57	6.92	47.4
CC(C)n1nc(-c2ccc(CC(=O)Nc3cc(C(C)(C)C(F)(F)F)no3)cc2)c2c(N)ncnc21 [Compound T-8, 2-(4-(4-amino-1-isopropyl-1H-pyrazolo[3,4-d]pyrimidin-3-yl)phenyl)-N-(3-(1,1,1-trifluoro-2-methylprop-2-yl)isoxazol-5-yl)acetamide]	585.5	1021.4	3.6	7.34	2.39	1538.5
CC(C)n1nc(-c2ccc(CC(=O)Nc3cc(C(C)(C)C(F)(F)F)no3)cn2)c2c(N)ncnc21 [Compound T-9, 2-(6-(4-amino-1-isopropyl-1H-pyrazolo[3,4-d]pyrimidin-3-yl)pyridin-3-yl)-N-(3-(1,1,1-trifluoro-2-methylprop-2-yl)isoxazol-5-yl)acetamide]	146.5	137.7	29.9	46.9	47.7	86.3
CC(C)c1nc(-c2ccc(CC(=O)Nc3cc(C(C)(C)C(F)(F)F)on3)cc2)c2c(N)ncnn12 [Compound T-10, 2-(4-(4-amino-7-isopropylimidazo[5,1-f][1,2,4]triazin-5-yl)phenyl)-N-(5-(1,1,1-trifluoro-2-methylprop-2-yl)isoxazol-3-yl)acetamide]	57.3	191.6	11.7	46.4	2.78	806.5
